The target of data set [1] is IGF-1R (Homo sapiens, UniProt P08069). In words: IGFR1 activity assay (ELISA). It is filed as biochemical. The note with it: read-out: IGF-1R, PCT INH (30 μM), ELISA. The method, boiled down: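 IGF1R (0.33 ng/μL final) phosphorylating Pyk-2 (0.05 ng/μL final) in buffer with 12.5 μM ATP, 10 mM MgCl2, 1 h room temperature. Product captured on streptavidin plates, detected with anti-phosphotyrosine and alkaline phosphatase secondary antibody, Attophos fluorescent readout.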
Chain of IGF-1R (P08069 31-1367): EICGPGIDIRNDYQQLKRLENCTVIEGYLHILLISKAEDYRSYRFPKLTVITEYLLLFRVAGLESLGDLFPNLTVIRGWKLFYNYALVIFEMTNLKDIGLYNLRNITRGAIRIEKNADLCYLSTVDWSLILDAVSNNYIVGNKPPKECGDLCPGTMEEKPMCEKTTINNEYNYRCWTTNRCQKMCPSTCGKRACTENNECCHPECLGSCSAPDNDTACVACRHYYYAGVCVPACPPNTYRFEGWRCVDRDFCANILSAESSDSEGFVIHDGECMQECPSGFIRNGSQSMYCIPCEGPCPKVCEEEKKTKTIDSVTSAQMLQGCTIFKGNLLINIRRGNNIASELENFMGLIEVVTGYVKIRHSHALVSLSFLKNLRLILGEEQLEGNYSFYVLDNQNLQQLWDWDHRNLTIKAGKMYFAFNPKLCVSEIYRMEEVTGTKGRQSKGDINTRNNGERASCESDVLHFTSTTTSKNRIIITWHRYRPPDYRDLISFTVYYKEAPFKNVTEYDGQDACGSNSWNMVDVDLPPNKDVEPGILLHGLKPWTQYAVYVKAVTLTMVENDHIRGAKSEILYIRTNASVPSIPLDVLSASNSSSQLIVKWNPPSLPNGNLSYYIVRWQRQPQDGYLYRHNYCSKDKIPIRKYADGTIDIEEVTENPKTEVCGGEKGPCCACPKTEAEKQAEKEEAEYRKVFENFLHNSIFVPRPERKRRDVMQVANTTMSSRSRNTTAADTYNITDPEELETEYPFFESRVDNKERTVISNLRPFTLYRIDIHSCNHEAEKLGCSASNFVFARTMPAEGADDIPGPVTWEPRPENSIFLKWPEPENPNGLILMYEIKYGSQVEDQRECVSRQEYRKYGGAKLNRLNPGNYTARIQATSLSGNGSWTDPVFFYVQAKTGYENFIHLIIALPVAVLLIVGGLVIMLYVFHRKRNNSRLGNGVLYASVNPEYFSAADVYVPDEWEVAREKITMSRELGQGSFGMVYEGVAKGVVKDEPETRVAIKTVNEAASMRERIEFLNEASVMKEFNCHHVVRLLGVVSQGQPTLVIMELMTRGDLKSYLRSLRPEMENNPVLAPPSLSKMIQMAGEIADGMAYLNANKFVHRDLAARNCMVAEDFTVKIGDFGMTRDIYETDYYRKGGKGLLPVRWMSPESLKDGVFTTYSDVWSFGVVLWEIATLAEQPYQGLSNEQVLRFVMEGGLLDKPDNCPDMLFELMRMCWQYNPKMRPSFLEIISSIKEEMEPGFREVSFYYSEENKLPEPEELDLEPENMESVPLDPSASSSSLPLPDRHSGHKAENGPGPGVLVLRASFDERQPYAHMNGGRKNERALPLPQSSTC
Background: In an ELISA, binding on a coated surface is turned into a signal by an enzyme label.

Data set [2] has as its system KATO III. As to the kind of experiment: MTS assay, KATO III cells. It is filed as cell-based. The note with it: Homo sapiens, 72 hours, read-out: KATO III, MTS cell kill % inhibition. In outline:
(§1)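 First, seed 3000 cells per well in low-serum (1% FBS) DMEM and culture 18 h. Next, add compounds prepared at 300× in DMSO and diluted 1:40 in DMEM; incubate 72 h. Finally, add MTS/PMS for 4 h and measure absorbance at 492 nm.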

For data set [3], the system named is NCI-H1299. In words: MTS assay, NCI-H1299 cells. The following applies: Homo sapiens, 72 hours, read-out: NCI-H1299, MTS cell kill % inhibition. It is filed as cell-based. In outline:
as §1
A general note: Tetrazolium dyes change colour on reduction, which living cells bring about.

Data set [4] has as its system DLD-1. In words: MTS assay, DLD-1 cells. Type of data set: cell-based. The note with it: Homo sapiens, 72 hours, read-out: DLD-1, MTS cell kill % inhibition. The method, boiled down: as §1
The subject of data set [5] is MDA-MB-231. In words: MTS assay, MDA-MB-231 cells. It is filed as cell-based. The note with it: Homo sapiens, 72 hours, read-out: MDA-MB-231, MTS cell kill % inhibition. The method, boiled down: as §1

On to `O=C(c1ccc2[nH]c(-c3ccc[nH]c3=O)c(-c3ccccc3)c2c1)N1CCCCC1` [Compound 17, 3-[3-phenyl-5-(piperidin-1-ylcarbonyl)-1H-indol-2-yl]pyridin-2(1H)-one], for which the melting point was in the range of 182 to 186 °C. In addition, the inhibition at 30 µM in data set [1] lay within 80 to 100%. Besides, the inhibition at 10 µM in data set [2] is 80 to 100%. Besides, in data set [3], the inhibition at 10 µM lay in the range of 80 to 100%. Further, in data set [4], the inhibition at 10 µM is 50 to 79%. Also, the inhibition at 10 µM in data set [5] was < 50%.

`O=C(Nc1cccc(Cl)c1)c1ccc2[nH]c(-c3ccc[nH]c3=O)c(-c3ccccc3)c2c1` [Compound 22, N-(3-chlorophenyl)-2-(2-oxo-1,2-dihydropyridin-3-yl)-3-phenyl-1H-indole-5-carboxamide] registered a melting point of 244 to 250 °C. For the same compound, in data set [1], the inhibition at 30 µM is 50 to 79%. For the same compound, the inhibition at 10 µM in data set [2] lay in the range of 80 to 100%. In addition, the inhibition at 10 µM in data set [3] lay in the range of 50 to 79%. Moreover, the inhibition at 10 µM in data set [4] is 80 to 100%. In addition, the inhibition at 10 µM in data set [5] was 50 to 79%.

`CN(C)CCCN(C)C(=O)c1ccc2[nH]c(-c3ccc[nH]c3=O)c(-c3ccccc3)c2c1` [Compound 27, N-[3-(dimethylamino)propyl]-N-methyl-2-(2-oxo-1,2-dihydropyridin-3-yl)-3-phenyl-1H-indole-5-carboxamide] registered a melting point of 125 to 128 °C. Besides, the inhibition at 30 µM in data set [1] fell in the range of 80 to 100%. Moreover, the inhibition at 10 µM in data set [2] lay within 80 to 100%. The inhibition at 10 µM in data set [3] was 50 to 79%. In addition, the inhibition at 10 µM in data set [4] was 50 to 79%. For the same compound, the inhibition at 10 µM in data set [5] lay within 50 to 79%.

The compound `COc1ccc(NC(=O)c2ccc3[nH]c(-c4ccc[nH]c4=O)c(-c4ccccc4)c3c2)cc1` [Compound 29, N-(4-methoxyphenyl)-2-(2-oxo-1,2-dihydropyridin-3-yl)-3-phenyl-1H-indole-5-carboxamide] came in with a melting point of 279 to 283 °C. Besides, the inhibition at 30 µM in data set [1] is 80 to 100%. The inhibition at 10 µM in data set [2] is 80 to 100%. In addition, the inhibition at 10 µM in data set [3] fell in the range of 80 to 100%. In addition, in data set [4], the inhibition at 10 µM lay in the range of 50 to 79%. The inhibition at 10 µM in data set [5] is < 50%.

As for `CN(C)CCCNC(=O)c1ccc2[nH]c(-c3ccc[nH]c3=O)c(-c3ccccc3)c2c1` [Compound 30, N-[3-(dimethylamino)propyl]-2-(2-oxo-1,2-dihydropyridin-3-yl)-3-phenyl-1H-indole-5-carboxamide], the melting point is 143 to 145 °C. For the same compound, the inhibition at 30 µM in data set [1] lay in the range of 80 to 100%. Further, in data set [2], the inhibition at 10 µM is 80 to 100%. The inhibition at 10 µM in data set [3] lay in the range of 80 to 100%. In data set [4], the inhibition at 10 µM was 80 to 100%. Also, the inhibition at 10 µM in data set [5] fell in the range of 80 to 100%.

`CN(Cc1cccnc1)C(=O)c1ccc2[nH]c(-c3ccc[nH]c3=O)c(-c3ccc(-c4ccccc4)cc3)c2c1` [Compound 33, 3-biphenyl-4-yl-N-methyl-2-(2-oxo-1,2-dihydropyridin-3-yl)-N-(pyridin-3-ylmethyl)-1H-indole-5-carboxamide]: the melting point was 92 to 97 °C. In data set [1], the inhibition at 30 µM is < 50%. In addition, in data set [2], the inhibition at 10 µM was in the range of 80 to 100%. In addition, the inhibition at 10 µM in data set [3] lay in the range of 80 to 100%. For the same compound, in data set [4], the inhibition at 10 µM fell in the range of 80 to 100%. Moreover, the inhibition at 10 µM in data set [5] was 80 to 100%.

As to `O=C(c1ccc2[nH]c(-c3ccc[nH]c3=O)c(-c3ccc(-c4ccccc4)cc3)c2c1)N1CCN(c2ccccc2F)CC1` [Compound 36, 3-(3-biphenyl-4-yl-5-{[4-(2-fluorophenyl)piperazin-1-yl]carbonyl) -1H-indol-2-yl)pyridin-2(1H)-one], the melting point fell in the range of 137 to 144 °C. Further, the inhibition at 30 µM in data set [1] was < 50%. The inhibition at 10 µM in data set [2] was < 50%. Also, the inhibition at 10 µM in data set [3] is < 50%. Moreover, the inhibition at 10 µM in data set [4] is < 50%. For the same compound, the inhibition at 10 µM in data set [5] fell in the range of 50 to 79%.

On to `O=C(c1ccc2[nH]c(-c3ccc[nH]c3=O)c(-c3ccc(-c4ccccc4)cc3)c2c1)N1CCCCC1` [Compound 38, 3-[3-biphenyl-4-yl-5-(piperidin-1-ylcarbonyl)-1H-indol-2-yl]pyridin-2(1H)-one], for which the melting point was in the range of 170 to 182 °C. Further, in data set [1], the inhibition at 30 µM was < 50%. In data set [2], the inhibition at 10 µM fell in the range of 80 to 100%. In addition, in data set [3], the inhibition at 10 µM fell in the range of 80 to 100%. The inhibition at 10 µM in data set [4] lay within 80 to 100%. For the same compound, the inhibition at 10 µM in data set [5] was in the range of 80 to 100%.

Compound `O=C(NCc1ccccn1)c1ccc2[nH]c(-c3ccc[nH]c3=O)c(-c3ccc(-c4ccccc4)cc3)c2c1` [Compound 42, 3-biphenyl-4-yl-2-(2-oxo-1,2-dihydropyridin-3-yl)-N-(pyridin-2-ylmethyl)-1H-indole-5-carboxamide] yielded a melting point of 123 to 127 °C. Moreover, in data set [1], the inhibition at 30 µM is < 50%. For the same compound, the inhibition at 10 µM in data set [2] lay in the range of 80 to 100%. Besides, the inhibition at 10 µM in data set [3] lay in the range of 80 to 100%. Further, the inhibition at 10 µM in data set [4] was in the range of 80 to 100%. The inhibition at 10 µM in data set [5] was in the range of 80 to 100%.

As for `CN(CCc1ccccc1)C(=O)c1ccc2[nH]c(-c3ccc[nH]c3=O)c(-c3ccc(-c4ccccc4)cc3)c2c1` [Compound 43, 3-biphenyl-4-yl-N-methyl-2-(2-oxo-1,2-dihydropyridin-3-yl)-N-(2-phenylethyl)-1H-indole-5-carboxamide], the melting point lay in the range of 136 to 141 °C. In addition, the inhibition at 30 µM in data set [1] is < 50%. For the same compound, in data set [2], the inhibition at 10 µM fell in the range of 50 to 79%. The inhibition at 10 µM in data set [3] lay in the range of 50 to 79%. For the same compound, the inhibition at 10 µM in data set [4] lay in the range of 50 to 79%. Also, the inhibition at 10 µM in data set [5] is < 50%.

In turn, `O=C(c1ccc2[nH]c(-c3ccc[nH]c3=O)c(-c3ccc(-c4ccccc4)cc3)c2c1)N1CCN(c2cnccn2)CC1` [Compound 45, 3-{3-biphenyl-4-yl-5-[(4-pyrazin-2-ylpiperazin-1-yl)carbonyl]-1H-indol-2-yl}pyridin-2(1H)-one] displayed a melting point of 289 to 296 °C. In data set [1], the inhibition at 30 µM fell in the range of 50 to 79%. The inhibition at 10 µM in data set [2] lay in the range of 80 to 100%. Also, the inhibition at 10 µM in data set [3] is 80 to 100%. Besides, in data set [4], the inhibition at 10 µM is 50 to 79%. Further, the inhibition at 10 µM in data set [5] fell in the range of 80 to 100%.

The compound `O=C(NCCOc1ccccc1)c1ccc2[nH]c(-c3ccc[nH]c3=O)c(-c3ccc(-c4ccccc4)cc3)c2c1` [Compound 51, 3-biphenyl-4-yl-2-(2-oxo-1,2-dihydropyridin-3-yl)-N-(2-phenoxyethyl)-1H-indole-5-carboxamide] had a melting point of 147 to 153 °C. For the same compound, the inhibition at 30 µM in data set [1] is < 50%. The inhibition at 10 µM in data set [2] was < 50%. In addition, in data set [3], the inhibition at 10 µM was < 50%. The inhibition at 10 µM in data set [4] was < 50%. Further, in data set [5], the inhibition at 10 µM fell in the range of 50 to 79%.

Compound `CN(C)CCCNCc1ccc2[nH]c(-c3ccc[nH]c3=O)c(-c3ccc(-c4ccccc4)cc3)c2c1` [Compound 54, 3-[3-biphenyl-4-yl-5-({[3-(dimethylamino)propyl]amino}methyl)-1H-indol-2-yl]pyridin-2(1H)-one] came in with a melting point of 160 to 166 °C. The inhibition at 30 µM in data set [1] is < 50%. Also, the inhibition at 10 µM in data set [2] was < 50%. Moreover, the inhibition at 10 µM in data set [3] is < 50%. For the same compound, the inhibition at 10 µM in data set [4] fell in the range of 50 to 79%. In addition, the inhibition at 10 µM in data set [5] is 50 to 79%.

`O=C(NCCCN1CCOCC1)c1ccc2[nH]c(-c3ccc[nH]c3=O)c(Br)c2c1` [Compound 56, 3-bromo-N-(3-morpholin-4-ylpropyl)-2-(2-oxo-1,2-dihydropyridin-3-yl)-1H-indole-5-carboxamide] registered a melting point of 138 to 142 °C. Further, in data set [1], the inhibition at 30 µM was 80 to 100%. For the same compound, the inhibition at 10 µM in data set [2] was < 50%. Moreover, the inhibition at 10 µM in data set [3] is < 50%. The inhibition at 10 µM in data set [4] was < 50%. In data set [5], the inhibition at 10 µM is < 50%.

As for `O=C(NCCCN1CCOCC1)c1ccc2[nH]c(-c3ccc[nH]c3=O)c(-c3ccc(Oc4ccccc4)cc3)c2c1` [Compound 57, N-(3-morpholin-4-ylpropyl)-2-(2-oxo-1,2-dihydropyridin-3-yl)-3-(4-phenoxyphenyl)-1H-indole-5-carboxamide], the melting point was 121 to 123 °C. The inhibition at 30 µM in data set [1] fell in the range of 80 to 100%. Moreover, the inhibition at 10 µM in data set [2] was 80 to 100%. Moreover, the inhibition at 10 µM in data set [3] fell in the range of 80 to 100%. In data set [4], the inhibition at 10 µM lay in the range of 80 to 100%. Further, the inhibition at 10 µM in data set [5] is 80 to 100%.

Consider `O=C(NCCCN1CCOCC1)c1ccc2[nH]c(-c3ccc[nH]c3=O)c(-c3ccc(Cl)c(Cl)c3)c2c1` [Compound 59, 3-(3,4-dichlorophenyl)-N-(3-morpholin-4-ylpropyl)-2-(2-oxo-1,2-dihydropyridin-3-yl)-1H-indole-5-carboxamide], for which the melting point was in the range of 135 to 138 °C. The inhibition at 30 µM in data set [1] is 50 to 79%. For the same compound, the inhibition at 10 µM in data set [2] lay in the range of 80 to 100%. For the same compound, the inhibition at 10 µM in data set [3] is 50 to 79%. The inhibition at 10 µM in data set [4] is 50 to 79%. Further, in data set [5], the inhibition at 10 µM was < 50%.

In the case of `CCc1ccc(-c2c(-c3ccc[nH]c3=O)[nH]c3ccc(C(=O)NCCCN4CCOCC4)cc23)cc1` [Compound 65, 3-(4-ethylphenyl)-N-(3-morpholin-4-ylpropyl)-2-(2-oxo-1,2-dihydropyridin-3-yl)-1H-indole-5-carboxamide], the melting point fell in the range of 143 to 145 °C. The inhibition at 30 µM in data set [1] is 80 to 100%. The inhibition at 10 µM in data set [2] lay within 80 to 100%. The inhibition at 10 µM in data set [3] lay in the range of 80 to 100%. In addition, in data set [4], the inhibition at 10 µM was in the range of 80 to 100%. Besides, the inhibition at 10 µM in data set [5] was in the range of 50 to 79%.

A word on the melting point: it is the temperature, or range, at which the solid turns liquid.
